# Data as given in patent US5250735A, “2-(N-substituted-aminoalkyl)-5-(E)-alkylidene cyclopentanones, 2-(N-substituted-aminoalkyl)-5-(E)-arylalkylidene cyclopentanones, and derivatives thereof” (priority 1992, dated 1993).
# How the values were obtained:
# Acute toxicity = conditions: mouse, in vivo, 4 week old male mice
# Method: (§1) The acute toxicity of one typical compound of this invention was measured by administering the compound to a group of 4 week old male mice.
# male mice = assay: Acute toxicity; conditions: mouse, in vivo
# Method: as §1
# [1] = tested on: 60 human tumor cell lines; assay: National Cancer Institute in vitro tumor cell screen; format: cell-based
# Method: In the assay, a candidate compound was tested for its ability to inhibit tumor cell growth. A dose response curve of percent cell growth versus compound concentration over a concentration range of 10^-9 to 10^-4 molar of each test compound was established to determine GI50, TGI and LC50. GI50 and TGI denote that cell proliferation was inhibited by 50% and 100% respectively. LC50 denotes that 50% of cell population was killed. The selectivity of a compound towards a certain type of tumor cell line was evaluated from mean graphs which compared the relative drug concentrations required to produce the same level of response (e.g. GI50) in each cell line. A differential cellular sensitivity index was calculated by taking the difference between the logarithm of GI50 (or TGI, LC50) value for a cell line versus the arithmetic mean of the logarithm of GI50 (or TGI, LC 50) value for all cell line responses measured for a given compound.
# [2] = tested on: Ehrlich ascites carcinoma; assay: Antitumor effect on Ehrlich ascites carcinoma, survival; format: in vivo, ICR mice; conditions: 20 mg/kg/day intraperitoneal, 9 days
# Method: Antitumor effect was measured on Ehrlich ascites carcinoma. Ehrlich ascites carcinoma cells were intraperitoneally administered to ICR mice. After 24 hours, 20 mg/kg/day of the compound whose synthesis is illustrated in Example 1 and Example 2 were each administered to the mice by intraperitoneal route for 9 days. The periods of survival of these animals were examined.
smiles,measurement,setting,value
"CCCC/C=C1\CCC(CN(C)C)C1=O.Cl (stereo not drawn) [Compound 1, 2-Dimethylaminomethyl-5-(E)-pentylidene cyclopentanone hydrochloride]",LD50,"Acute toxicity; ip, intraperitoneal",107 mg/kg
same,LD50,"Acute toxicity; iv, intraveneous",52 mg/kg
same,LD50,Acute toxicity; oral,486 mg/kg
same,acute toxicity (in words),male mice,low acute toxicity
same,GI50,"[1]; Homo sapiens, molar concentration, 50% inhibition of cell proliferation, mean of all cell lines, read-out: Mean response of all cell lines (Log) GI50 (converted)",1.58 µM
same,IC100,"[1]; Homo sapiens, molar concentration, 100% inhibition of cell proliferation, mean of all cell lines, read-out: Mean response of all cell lines (Log) TGI (converted)",3.8 µM
same,"Differential Cellular Sensitivity GI50, tumor cell line subpanels",[1]; subpanels for GI50,LEU;COL
same,"Differential Cellular Sensitivity LC50, tumor cell line subpanels",[1]; subpanels for LC50,COL;LNS;REN
same,"Differential Cellular Sensitivity TGI, tumor cell line subpanels",[1]; subpanels for TGI,COL;REN
same,average number of days of survival,[2],41 ± 5.4 days
same,increase of life span (ILS %) over the control,[2],173.8%
same,ratio of survival for more than 40 days,[2],9/11
